Measurements: patent publication US4897391A, “Tricyclic anti-allergy, antiinflammatory and anti-hyperproliferative compounds” (Schering Corporation, priority 1988, dated 1990)

Tests used:
[1] = system: Peptidoleukotriene Release in Guinea Pig Lung; assay: Peptidoleukotriene Release Inhibition in Lung Assay; type: cell-based; settings: Cavia porcellus; final concentration of 50 μm (so in the source); ovalbumin challenge, sensitized guinea pig lung
Description: The anti-allergy method of this invention is identified by tests that measure inhibition of leukotriene release in sensitized guinea pigs by compounds of the invention. This procedure is as follows.
First, kill sensitized guinea pigs by a blow to the head, remove the lungs and clean them of visible connective tissue, trachea and large blood vessels. Slice the lungs from individual animals into fragments approximately 1 mm in thickness using a McIlwain tissue chopper and wash them with oxygenated Tyrode's buffer. Transfer weighed aliquots (approximately 400 mg wet weight) of lung into vials containing 2 ml of fresh Tyrode's solution (containing 10 mM cysteine) and incubate in the presence or absence of test compound for 12 minutes at 37° C., challenge the tissues with 20 μg ovalbumin/ml (final concentration) and incubate for 15 minutes. To measure leukotriene release, extract an aliquot of supernatant fluid with 4 volumes of 100% ethanol. After removal of the precipitated protein, dry the clear fluid under a stream of N2 gas. Measure the leukotriene content by a radioimmunoassay using [^3 H]LTC4 (leukotriene C4) and antiserum obtained from New England Nuclear. […] Calculate percent inhibition of leukotriene release by comparing for each lung the release in the presence of the test compound to that in the absence of test compound.

[2] = biological target: T1, 5-lipoxygenase (Mus musculus, UniProt P48999); assay: 5-Lipoxygenase Assay (MC-9 mast cells, 5-HETE and LTC4 production); type: cell-based, murine; settings: MC9, 50 μM dose; MC-9 cells; read-out: % Inhibition 5-HETE
T1 construct: Preincubate MC-9 cells (0.39 ml at 7.5×10^6 cells/ml) without or with test compound; endogenous in cells; host or cells: MC-9 murine mast cell clone (interleukin-3-dependent)
T1 sequence (P48999 1-674): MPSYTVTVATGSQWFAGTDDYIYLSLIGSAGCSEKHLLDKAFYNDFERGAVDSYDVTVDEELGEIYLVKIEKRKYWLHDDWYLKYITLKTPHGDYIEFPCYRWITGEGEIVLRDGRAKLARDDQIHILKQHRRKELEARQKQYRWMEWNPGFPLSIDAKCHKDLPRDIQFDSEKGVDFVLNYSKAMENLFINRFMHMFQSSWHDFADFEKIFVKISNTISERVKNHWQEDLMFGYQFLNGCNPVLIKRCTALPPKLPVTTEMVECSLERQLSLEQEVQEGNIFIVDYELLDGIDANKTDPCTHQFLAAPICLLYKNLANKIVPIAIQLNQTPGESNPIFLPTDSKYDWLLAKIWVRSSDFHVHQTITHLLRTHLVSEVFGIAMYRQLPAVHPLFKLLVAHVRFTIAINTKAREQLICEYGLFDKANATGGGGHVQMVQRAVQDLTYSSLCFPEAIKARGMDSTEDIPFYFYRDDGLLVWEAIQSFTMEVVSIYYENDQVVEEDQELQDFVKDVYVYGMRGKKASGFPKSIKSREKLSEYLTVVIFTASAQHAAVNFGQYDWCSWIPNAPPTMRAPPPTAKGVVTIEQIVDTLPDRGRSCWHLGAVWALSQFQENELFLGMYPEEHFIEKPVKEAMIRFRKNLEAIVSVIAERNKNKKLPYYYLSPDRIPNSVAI
Experimental: Preincubate MC-9 cells (0.39 ml at 7.5×10^6 cells/ml) without or with test compound dissolved in dimethylsulfoxide (DMSO) vehicle (to a final volume 1 μl) for 4 minutes then incubate for 5 minutes with [^14 C]arachidonic acid (Amersham, 59 Ci/mole) at a 9 μM final concentration, and A23187 (Calbiochem) at a 1 μM final concentration in 10 μl of water:ethanol (9:1). Stop the reaction by addition of methanol (0.4 ml), and remove cellular debris by centrifugation. Run aliquots (250 μl) of the incubations on a Waters two-pump HPLC system fitted with a Waters radial compression column (C18, 10 micron, 8×100 mm, micro-Bondapak) and C18 "Guard Pak". Initially elute the column at 3 ml/min with water:methanol:acetic acid (67:33:0.08) containing 1 mM EDTA adjusted to pH 6.0 with ammonium hydroxide (Pump A). At 4 minutes, establish a linear gradient to reach 100% methanol (Pump B) at 9 minutes. Between 13 and 14 minutes, exchange for the initial eluting solvent and by 19 minutes the column will be reequilibrated for the next sample. Analyze the effluent by a continuous flow radioactivity monitor (model ROMONA-D) interfaced with a Hewlett Packard Lab Automation System for quantitation of radioactive products. […] Doses in table 2 are 50 μM unless otherwise noted.

[3] = system: Reversed Passive Arthus Reaction (paw swelling); assay: Reversed Passive Arthus Reaction (RPAR) Assay; type: in vivo, Male Lewis inbred albino rats; settings: 50 mg/kg p.o.; rat
Description: Male Lewis inbred albino rats weighing 180-220 grams obtained from Charles River Breeding Laboratories are used in these experiments. House the rats 3 animals/cage and allow food and water ad libitum. Number the animals 1 to 3 in each cage and color mark them for identification purposes.
Prepare all reagents and drugs just prior to the study. Without shaking, solubilize crystallized and lyophilized bovine serum albumin (BSA), obtained from Sigma Chemical Company, in cold sterile pyrogen-free saline (10 mg/ml PFS). Suspend lyophilized anti-bovine serum albumin (IgG Fraction), obtained from Cappel Laboratories, in sterile distilled water and dilute with cold pyrogen-free saline (PFS) just prior to use. The final concentration of anti-bovine serum albumin will be 0.5 mg/ml of PFS. Both BSA and anti-BSA solutions should be iced during use. Suspend or solubilize drugs in an aqueous solution of methyl cellulose (MC) with a homogenizer just prior to administration.
Dose groups of animals (6/group) with drug in methyl cellulose (MC) by gastric lavage one hour prior to sensitization with BSA. Give controls MC alone and include drug-standard in each assay for verification purposes. Prepare drugs so as to provide a dose for a 200 gram animal which is equivalent to the mg/kg dose for the experiment. Thus each rat receives an oral dose in a volume of approximately 2.0 ml. […]

Question: Which results are given for `COc1cc(OC)c2c(C)c3n(c(=O)c2c1)CCCC3` [Compound E, 8,10-bis(methoxy)-1,2,3,4-tetrahydro-11-methyl-6H-benzo[b]quinolizin-6-one]?
Answer: inhibition at 50 µM [1]: 33%; inhibition at 50 µM [2]: 8%; inhibition of paw swelling [3]: 59%
